Data as given in patent publication US20100112099A1, “PHYTOCHEMICAL COMPOSITIONS AND METHODS FOR ACTIVATING AMP-KINASE” (METAPROTEOMICS, LLC, priority 2008, published 2010).

Test system: AMPK
Assay: AMPK activation (pT172-AMPK immunoassay) in C2C12 myocytes
Type: cell-based, mouse
Conditions: for pAMPK/AMPK.: test material 25 μg/mL, pT172-AMPK per mg lysate protein normalized to DMSO negative controls
Method: The Model—The C2C12 myocyte model is commonly used to study the potential effects of compounds on muscle tissue in vitro.
Cell culture—Mouse C2C12 myoblasts were obtained from American Type Culture Collection (Manassas, Va.), and were maintained in Dulbecco's modified Eagle's medium (DMEM) supplemented with 10% fetal bovine serum at 37° C. under a humidified atmosphere of 5% CO2.
C2C12 cells were seeded at an initial density of 6×10^4 cells/cm^2 in 24-well plates. For two days, the cells were allowed grow to reach confluence. Following confluence, the cells were forced to differentiate into myocytes by culturing in DMEM supplemented with 2% horse serum for seven days.
Treatment with AICAR—On Day 8 to 10 post differentiation, C2C12 myocytes were incubated in serum-free DMEM plus 0.5% BSA (bovine serum albumin) for three hours. Next, AICAR (Cell Signal, Danvers, Mass.) was dissolved in phosphate buffered saline (PBS) and added to the culture medium to achieve concentrations of 1 mM per column (4 replicates) for 30 min at 37° C.
Measuring activated AMPKα—pT^172-AMPK was quantified using the Biosource AMPKa Immunoassay Kit (Camarillo, Calif.) without modification. Protein content of the cell lysates was determined with the Active Motif fluorescent protein assay reagent (Carlsbad Calif., Hoefelschweiger, B. K., Duerkop, A., and Wolfbeis, O, S, Novel type of general protein assay using a chromogenic and fluorogenic amine-reactive probe. Anal Biochem 2005, 344, 122-9). A Packard Fluorocount spectrofluorometer (Model#BF10000, Meridan, Conn.) was used for protein determination and a MEL312e BIO-KINETICS READER (Bio-Tek Instruments, Winooski, Vt.) was used for quantification of pT^172-AMPK.
Calculation of relative activation of AMPK —pT^172-AMPK was computed per mg lysate protein and then normalized to the dimethyl sulfoxide (DMSO) negative controls. For statistical comparisons, 95% confidence intervals were computed (Excel, Microsoft, Redman, Wash.).
The Model—The C2C12 murine myocyte model as described in Example 1 was used.
Chemicals, Cell Culture and Treatment—Chemicals, cell culture procedures, methods and statistical procedures used were as noted in Example 1.
Test Materials—Phytochemicals or botanical extracts as described in Table 1 were used as the test materials and dosed at 25 μglmL. The concentration for the positive control AICAR run concurrently was 1.0 mM (338 μg/mL).
The Model—The C2C12 murine myocyte model as described in Example 1 was used in this example.
Test Materials—Botanical extracts Ginger Extract (Suan Farma, Hackensack, N.J.), Ginger Root Powder (BI Nutraceuticals, Long Beach, Calif.), and Ginger Powdered Extract 6:1, Zingiber officinale (Draco, San Jose, Calif.) were used as the test materials and dosed at 25 μg/mL. The concentration for the positive control AICAR was 1.0 mM (338 μg/mL).

Molecule	pAMPK/AMPK.	increase of pT172-AMPK relative to the DMSO negative controls (1 mM AICAR, 30 min, average over ten independent assays, 95% CI=1.26-2.21) [fold]
CC(C)=CCC1=C(O)C(C(=O)CC(C)C)=C(O)C(CC=C(C)C)(CC=C(C)C)C1=O [Lupulone]	1.63	–
COc1cc(O)c(CC=C(C)C)c(O)c1C(=O)/C=C/c1ccc(O)cc1 [Xanthohumol]	1.55	–
CCCCC[C@H](O)CC(=O)CCc1ccc(O)c(OC)c1 [6-Gingerol]	3.52	–
Chromium polynicotinate	1.59	–
Oc1ccc(C=Cc2cc(O)cc(O)c2)cc1 [Resveratrol]	1.25	–
COc1ccc2cc3[n+](cc2c1OC)CCc1cc2c(cc1-3)OCO2 [Berberine]	1.26	–
NC(=O)c1ncn([C@@H]2O[C@H](CO)[C@@H](O)[C@H]2O)c1N [AICAR, 5-Aminoimidazole-4-carboxamide ribonucleoside, reference compound]	–	1.67
CNCC(O)c1ccc(O)cc1 (stereo not drawn) [Synephrine]	2.64	–
CC(C)C[C@H](N)C(=O)O [L-Leucine]	1.29	–
